One may read the Km as the concentration of substrate that gives half-maximal velocity.

Where two headings read alike, the source gives them in different places. Bounds are passed on as bounds.

Here are results for two compounds from PMC8365446, “Structural determinants and distribution of phosphate specificity in ribonucleotide reductases” (The Journal of Biological Chemistry, 2021).

Assay [1] deals with T1, TVNrdJm.
T1 construct: gene nrdJ
The conditions noted are these: read-out: apparent KM; effector dTTP, adenosylcobalamin, TCEP, 20 mmol L^−1 MgCl2, Tris pH 8.0, 40 °C; apparent fitted value, called lower boundary by authors (substrate inhibition omitted).

For assay [2], the system named is T2, TVNrdJm.
T2 construct: gene nrdJ; monomeric-type class II RNR; pET28b(+) NdeI/HindIII, E. coli BL21(DE3); apical loop P-A-G-R with A67, G68, R69
As to the kind of experiment: HPLC quantification of deoxyribonucleotide, Michaelis-Menten fit. The conditions noted are these: effector dTTP, adenosylcobalamin, TCEP, 20 mmol L^−1 MgCl2, Tris pH 8.0, 40 °C. Type of assay: biochemical, Thermus virus P74-23.

With `Nc1nc2c(ncn2[C@@H]2O[C@H](COP(=O)(O)OP(=O)(O)O)[C@@H](O)[C@H]2O)c(=O)[nH]1` [GDP], the Km in assay [1] is above 6850 µM. Take `Nc1nc2c(ncn2[C@@H]2O[C@H](COP(=O)(O)OP(=O)(O)OP(=O)(O)O)[C@@H](O)[C@H]2O)c(=O)[nH]1` [GTP]: the Km in assay [2] came out at 300 ± 60 µM.
